Data: US10947291B2, “Treating type I and type II diabetes” (Mayo Foundation for Medical Education and Research, priority 2013, dated 2021)

Tested on: female mice (C57/BL6) with streptozocin-induced hyperglycemia
Assay: AAV1.CMV.insulin.RSV.icasp9 and AP20187 in streptozocin-treated C57/BL6 mice, blood glucose
Assay type: in vivo
Details: IP 10 mg/kg, five consecutive days starting on day 14 after AAV1.CMV.insulin.RSV.icasp9 (FIG. 6)
Description: FIG. 6 is a graph plotting glucose levels for three groups of mice. One group was treated intraperitoneally (IP) with streptozocin (STZ) for two weeks to develop hyperglycemia. A second group was treated intraperitoneally (IP) with streptozocin (STZ) for two weeks to develop hyperglycemia and then administered AAV1.CMV.insulin.RSV.icasp9 (AAV1) intramuscularly (IM) on day zero. The third group was treated intraperitoneally (IP) with streptozocin (STZ) for two weeks to develop hyperglycemia, was then administered AAV1.CMV.insulin.RSV.icasp9 (AAV1) intramuscularly (IM) on day zero followed by intraperitoneal (IP) administration of AP20187 (B/B) on days 14, 15, 16, 17, and 18.
To induce diabetes in mice, three groups of female mice (C57/BL6) were given, on 5 consecutive days, an intraperitoneal (IP) injection of Streptozocin (STZ; Sigma cat #50130) at 45 mg/kg body weight dissolved in 0.1 mol/L citrate buffer (pH 4.5) immediately before administration. Two weeks later, when hyperglycemia developed, two groups of mice were injected intramuscularly (IM) with 1×10E11 particles/mice of AAV1.CMV.insulin.RSV.icasp9. Blood glucose levels were determined using a Contour blood glucose test strips (Bayer HealthCare LLC). 14 days later, one group of mice was injected via IP injection with 10 mg/kg of AP20187 (B/B homodimerizer; Clontech, Cat. No. AP20187) for 5 consecutive days.

Question: With `CC[C@H](C(=O)N1CCCCC1C(=O)O[C@H](CCc1ccc(OC)c(OC)c1)c1cccc(OCC(=O)NCC(CNC(=O)COc2cccc([C@@H](CCc3ccc(OC)c(OC)c3)OC(=O)[C@@H]3CCCCN3C(=O)[C@@H](CC)c3cc(OC)c(OC)c(OC)c3)c2)CN(C)C)c1)c1cc(OC)c(OC)c(OC)c1` (stereo partly shown) [AP20187] as the compound, how does the “glucose levels after induction of the iCasp9 death switch” value read?
Answer: The value was “steady increase in glucose levels”.
